Where two headings read alike, the source gives them in different places.
Assays:
[1] = tested on: Beet Armyworm (Spodoptera exigua, LAPHEG); experiment: Bioassays on Beet Armyworm (BAW), 128-well diet tray assay; type: in vivo; conditions: Spodoptera exigua, Beet Armyworm
How it was run: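 Diet-overlay assay: 50 μg/cm^2 compound applied in 90:10 acetone-water to artificial diet, allowed to dry, then infested with 1–5 L2 larvae/well; 8 wells/compound; covered, vented; 25° C., 14:10 L:D, 5–7 d; % mortality per well, averaged.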

[2] = tested on: Cabbage Looper (Trichoplusia ni, TRIPNI); experiment: Bioassays on Cabbage Looper (CL), 128-well diet tray assay; type: in vivo; conditions: Trichoplusia ni, Cabbage Looper
How it was run: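 One to five second-instar larvae per well on artificial diet surface-treated with 50 μg/cm^2 test molecule (applied in 90:10 acetone-water, dried). Held 5–7 days at 25° C, 14:10 light-dark; percent mortality recorded per well and averaged over eight wells.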

[3] = Table ABC / ABC-DP rating, read-out: BAW rating
[4] = Table ABC / ABC-DP rating, read-out: CL rating

**Q.** For `CCNc1c(F)ccc(NC(=O)c2cc(NC(=O)[C@H]3[C@H](c4ccc(F)c(C(F)(F)F)c4)C3(Cl)Cl)ccc2Cl)c1F` [F1762, 2-Chloro-5-((1R,3R)-2,2-dichloro-3-(4-fluoro-3-(trifluoromethyl)phenyl)cyclopropane-1-carboxamido)-N-(3-(ethylamino)-2,4-difluorophenyl)benzamide], which pest or weed control at 50 µg/cm2 ([1]; rating class, read-out: BAW) is on record?
**A.** 50 to 100%

**Q.** And the pest or weed control at 50 µg/cm2 ([2]; rating class, read-out: CL)?
**A.** 50 to 100%

**Q.** What does the source list for `O=C(Nc1c(F)ccc([N+](=O)[O-])c1F)c1cc(NC(=O)[C@H]2[C@H](c3cc(Cl)c(Cl)c(Cl)c3)C2(Cl)Cl)cc(F)c1F` [F1765, 5-((1R,3R)-2,2-Dichloro-3-(3,4,5-trichlorophenyl)cyclopropane-1-carboxamido)-N-(2,6-difluoro-3-nitrophenyl)-2,3-difluorobenzamide]?
**A.** pest or weed control at 50 µg/cm2 ([1]; rating class, read-out: BAW): 50 to 100%; pest or weed control at 50 µg/cm2 ([2]; rating class, read-out: CL): 50 to 100%

**Q.** `Nc1ccc(F)c(NC(=O)c2cc(NC(=O)[C@H]3[C@H](c4cc(Cl)c(Cl)c(Cl)c4)C3(Cl)Cl)cc(F)c2F)c1F` [F1770, N-(3-Amino-2,6-difluorophenyl)-5-((1R,3R)-2,2-dichloro-3-(3,4,5-trichlorophenyl)cyclopropane-1-carboxamido)-2,3-difluorobenzamide] was tested. Which pest or weed control at 50 µg/cm2 [1, 3] did it give?
**A.** 50 to 100%

**Q.** And the pest or weed control at 50 µg/cm2 [2, 4]?
**A.** 50 to 100%

**Q.** What does the source list for `O=C(COC(F)(F)F)Nc1c(F)ccc(NC(=O)c2cc(NC(=O)[C@H]3[C@H](c4cc(F)cc(C(F)(F)F)c4)C3(Cl)Cl)ccc2Cl)c1F` [F1772, 2-Chloro-5-((1R,3R)-2,2-dichloro-3-(3-fluoro-5-(trifluoromethyl)phenyl)cyclopropane-1-carboxamido)-N-(2,4-difluoro-3-(2-(trifluoromethoxy)acetamido)phenyl)benzamide]?
**A.** pest or weed control at 50 µg/cm2 [1, 3]: 50 to 100%; pest or weed control at 50 µg/cm2 [2, 4]: 50 to 100%

**Q.** How did the pest or weed control at 50 µg/cm2 [1, 3] turn out when `CC(OC(F)(F)F)C(=O)Nc1c(F)ccc(NC(=O)c2cc(NC(=O)[C@H]3[C@H](c4cc(F)cc(C(F)(F)F)c4)C3(Cl)Cl)ccc2Cl)c1F` (stereo partly drawn) [F1773, 2-Chloro-5-((1R,3R)-2,2-dichloro-3-(3-fluoro-5-(trifluoromethyl)phenyl)cyclopropane-1-carboxamido)-N-(2,4-difluoro-3-(2-(trifluoromethoxy)propanamido)phenyl)benzamide] was run?
**A.** 50 to 100%

**Q.** And the pest or weed control at 50 µg/cm2 [2, 4]?
**A.** 50 to 100%

**Q.** Which pest or weed control at 50 µg/cm2 [1, 3] does the source give for `O=C(COC(F)(F)F)Nc1ccc(F)c(NC(=O)c2cc(NC(=O)[C@H]3[C@H](c4cc(Cl)c(Cl)c(Cl)c4)C3(Cl)Cl)cc(F)c2F)c1F` [F1777, 5-((1R,3R)-2,2-Dichloro-3-(3,4,5-trichlorophenyl)cyclopropane-1-carboxamido)-N-(2,6-difluoro-3-(2-(trifluoromethoxy)acetamido)phenyl)-2,3-difluorobenzamide] here?
**A.** 50 to 100%

**Q.** What about the pest or weed control at 50 µg/cm2 [2, 4] of the same compound?
**A.** 50 to 100%

**Q.** What does the source list for `O=C(Nc1c(F)ccc(NC(=O)C2CCCO2)c1F)c1cc(NC(=O)[C@H]2[C@H](c3cc(Cl)c(Cl)c(Cl)c3)C2(Cl)Cl)cc(F)c1F` (stereo partly drawn) [F1778, N-(3-(5-((1R,3R)-2,2-Dichloro-3-(3,4,5-trichlorophenyl)cyclopropane-1-carboxamido)-2,3-difluorobenzamido)-2,4-difluorophenyl)tetrahydrofuran-2-carboxamide]?
**A.** pest or weed control at 50 µg/cm2 [1, 3]: 50 to 100%; pest or weed control at 50 µg/cm2 [2, 4]: 50 to 100%

**Q.** How did the pest or weed control at 50 µg/cm2 [1, 3] turn out when `O=C(Nc1c(F)ccc(NC(=O)C(F)(F)C(F)(F)C(F)(F)F)c1F)c1cc(NC(=O)[C@H]2[C@H](c3cc(Cl)c(Cl)c(Cl)c3)C2(Cl)Cl)cc(F)c1F` [F1779, 5-((1R,3R)-2,2-Dichloro-3-(3,4,5-trichlorophenyl)cyclopropane-1-carboxamido)-N-(2,6-difluoro-3-(2,2,3,3,4,4,4-heptafluorobutanamido)phenyl)-2,3-difluorobenzamide] was run?
**A.** 50 to 100%

**Q.** What about the pest or weed control at 50 µg/cm2 [2, 4] of the same compound?
**A.** 50 to 100%

**Q.** With `O=C(Nc1ccc(F)c(NC(=O)C2(F)OC(F)(F)C(F)(F)C(F)(F)C2(F)F)c1F)c1cc(NC(=O)[C@H]2[C@H](c3ccc(F)c(C(F)(F)F)c3)C2(Cl)Cl)ccc1Cl` (stereo partly drawn) [F1783, N-(3-(2-Chloro-5-((1R,3R)-2,2-dichloro-3-(4-fluoro-3-(trifluoromethyl)phenyl)cyclopropane-1-carboxamido)benzamido)-2,6-difluorophenyl)-2,3,3,4,4,5,5,6,6-nonafluorotetrahydro-2H-pyran-2-carboxamide] as the compound, how does the pest or weed control at 50 µg/cm2 [1, 3] read?
**A.** 50 to 100%

**Q.** And the pest or weed control at 50 µg/cm2 [2, 4]?
**A.** 50 to 100%

**Q.** For `C#CCNc1c(F)ccc(NC(=O)c2cc(NC(=O)[C@H]3[C@H](c4ccc(F)c(C(F)(F)F)c4)C3(Cl)Cl)ccc2Cl)c1F` [F1807, 2-Chloro-5-((1R,3R)-2,2-dichloro-3-(4-fluoro-3-(trifluoromethyl)phenyl)cyclopropane-1-carboxamido)-N-(2,4-difluoro-3-(prop-2-yn-1-ylamino)phenyl)benzamide], which pest or weed control at 50 µg/cm2 [1, 3] is on record?
**A.** 50 to 100%

**Q.** And the pest or weed control at 50 µg/cm2 [2, 4]?
**A.** 50 to 100%

**Q.** Which results are given for `C#CCN(C(=O)COC(F)(F)F)c1c(F)ccc(NC(=O)c2cc(NC(=O)[C@H]3[C@H](c4ccc(F)c(C(F)(F)F)c4)C3(Cl)Cl)ccc2Cl)c1F` [F1811, 2-Chloro-5-((1R,3R)-2,2-dichloro-3-(4-fluoro-3-(trifluoromethyl)phenyl)cyclopropane-1-carboxamido)-N-(2,4-difluoro-3-(N-(prop-2-yn-1-yl)-2-(trifluoromethoxy)acetamido)phenyl)benzamide]?
**A.** pest or weed control at 50 µg/cm2 [1, 3]: 50 to 100%; pest or weed control at 50 µg/cm2 [2, 4]: 50 to 100%

**Q.** Which pest or weed control at 50 µg/cm2 [1, 3] does the source give for `O=C(Nc1c(F)ccc(NC(=O)c2cc(NC(=O)[C@H]3[C@H](c4ccc(F)c(C(F)(F)F)c4)C3(Cl)Cl)ccc2Cl)c1F)c1ccno1` [F1816, N-(3-(2-Chloro-5-((1R,3R)-2,2-dichloro-3-(4-fluoro-3-(trifluoromethyl)phenyl)cyclopropane-1-carboxamido)benzamido)-2,6-difluorophenyl)isoxazole-5-carboxamide] here?
**A.** 50 to 100%

**Q.** And the pest or weed control at 50 µg/cm2 [2, 4]?
**A.** 50 to 100%

**Q.** With `O=C(Nc1c(F)ccc(NC(=O)c2cc(NC(=O)[C@H]3[C@H](c4ccc(F)c(C(F)(F)F)c4)C3(Cl)Cl)ccc2Cl)c1F)c1ccns1` [F1817, N-(3-(2-Chloro-5-((1R,3R)-2,2-dichloro-3-(4-fluoro-3-(trifluoromethyl)phenyl)cyclopropane-1-carboxamido)benzamido)-2,6-difluorophenyl)isothiazole-5-carboxamide] as the compound, how does the pest or weed control at 50 µg/cm2 [1, 3] read?
**A.** 50 to 100%

**Q.** And the pest or weed control at 50 µg/cm2 [2, 4]?
**A.** 50 to 100%

**Q.** `O=C(Nc1c(F)ccc(NC(=O)c2cc(NC(=O)[C@H]3[C@H](c4ccc(F)c(C(F)(F)F)c4)C3(Cl)Cl)ccc2Cl)c1F)c1cnns1` [F1820, N-(3-(2-Chloro-5-((1R,3R)-2,2-dichloro-3-(4-fluoro-3-(trifluoromethyl)phenyl)cyclopropane-1-carboxamido)benzamido)-2,6-difluorophenyl)-1,2,3-thiadiazole-5-carboxamide] was tested. Which pest or weed control at 50 µg/cm2 [1, 3] did it give?
**A.** 50 to 100%

**Q.** What about the pest or weed control at 50 µg/cm2 [2, 4] of the same compound?
**A.** 50 to 100%

**Q.** How did the pest or weed control at 50 µg/cm2 [1, 3] turn out when `O=C(Nc1ccc(F)c(NC(=O)C2(COC(F)(F)F)CC2)c1F)c1cc(NC(=O)[C@H]2[C@H](c3ccc(F)c(C(F)(F)F)c3)C2(Cl)Cl)ccc1Cl` [F1821, 2-Chloro-5-((1R,3R)-2,2-dichloro-3-(4-fluoro-3-(trifluoromethyl)phenyl)cyclopropane-1-carboxamido)-N-(2,4-difluoro-3-(1-((trifluoromethoxy)methyl)cyclopropane-1-carboxamido)phenyl)benzamide] was run?
**A.** 50 to 100%

**Q.** And the pest or weed control at 50 µg/cm2 [2, 4]?
**A.** 50 to 100%

**Q.** Which results are given for `O=C(Nc1c(F)ccc(NC(=O)c2cc(NC(=O)[C@H]3[C@H](c4ccc(F)c(C(F)(F)F)c4)C3(Cl)Cl)ccc2Cl)c1F)c1cc(C(F)(F)F)no1` [F1824, N-(3-(2-Chloro-5-((1R,3R)-2,2-dichloro-3-(4-fluoro-3-(trifluoromethyl)phenyl)cyclopropane-1-carboxamido)benzamido)-2,6-difluorophenyl)-3-(trifluoromethyl)isoxazole-5-carboxamide]?
**A.** pest or weed control at 50 µg/cm2 [1, 3]: 50 to 100%; pest or weed control at 50 µg/cm2 [2, 4]: 50 to 100%

**Q.** Which results are given for `CC(OC(F)F)C(=O)Nc1c(F)ccc(NC(=O)c2cc(NC(=O)[C@H]3[C@H](c4ccc(F)c(C(F)(F)F)c4)C3(Cl)Cl)ccc2Cl)c1F` (stereo partly drawn) [F1828, 2-Chloro-5-((1R,3R)-2,2-dichloro-3-(4-fluoro-3-(trifluoromethyl)phenyl)cyclopropane-1-carboxamido)-N-(3-(2-(difluoromethoxy)propanamido)-2,4-difluorophenyl)benzamide]?
**A.** pest or weed control at 50 µg/cm2 [1, 3]: 50 to 100%; pest or weed control at 50 µg/cm2 [2, 4]: 50 to 100%

**Q.** For `CC(C(=O)Nc1c(F)ccc(NC(=O)c2cc(NC(=O)[C@H]3[C@H](c4ccc(F)c(C(F)(F)F)c4)C3(Cl)Cl)ccc2Cl)c1F)C(F)(F)F` (stereo partly drawn) [F1832, 2-Chloro-5-((1R,3R)-2,2-dichloro-3-(4-fluoro-3-(trifluoromethyl)phenyl)cyclopropane-1-carboxamido)-N-(2,4-difluoro-3-(3,3,3-trifluoro-2-methylpropanamido)phenyl)benzamide], which pest or weed control at 50 µg/cm2 [1, 3] is on record?
**A.** 50 to 100%

**Q.** What about the pest or weed control at 50 µg/cm2 [2, 4] of the same compound?
**A.** 50 to 100%

**Q.** Which results are given for `O=C(CC(C(F)(F)F)C(F)(F)F)Nc1c(F)ccc(NC(=O)c2cc(NC(=O)[C@H]3[C@H](c4ccc(F)c(C(F)(F)F)c4)C3(Cl)Cl)ccc2Cl)c1F` [F1833, 2-Chloro-5-((1R,3R)-2,2-dichloro-3-(4-fluoro-3-(trifluoromethyl)phenyl)cyclopropane-1-carboxamido)-N-(2,4-difluoro-3-(4,4,4-trifluoro-3-(trifluoromethyl)butanamido)phenyl)benzamide]?
**A.** pest or weed control at 50 µg/cm2 [1, 3]: 50 to 100%; pest or weed control at 50 µg/cm2 [2, 4]: 50 to 100%

**Q.** `O=C(Nc1ccc(F)c(NC(=O)C(F)(F)C(F)(F)OC(F)(F)F)c1F)c1cc(NC(=O)[C@H]2[C@H](c3ccc(F)c(C(F)(F)F)c3)C2(Cl)Cl)ccc1Cl` [F1834, 2-Chloro-5-((1R,3R)-2,2-dichloro-3-(4-fluoro-3-(trifluoromethyl)phenyl)cyclopropane-1-carboxamido)-N-(2,4-difluoro-3-(2,2,3,3-tetrafluoro-3-(trifluoromethoxy)propanamido)phenyl)benzamide] was tested. Which pest or weed control at 50 µg/cm2 [1, 3] did it give?
**A.** 50 to 100%

**Q.** And the pest or weed control at 50 µg/cm2 [2, 4]?
**A.** 50 to 100%

Source: patent US20250228239A1, “MOLECULES HAVING PESTICIDAL UTILITY, AND INTERMEDIATES, COMPOSITIONS, AND PROCESSES, RELATED THERETO” (priority 2024, published 2025)
